Assay results: patent publication US11479802B2, “Assays for screening activity of modulators of members of the hydroxy steroid (17-beta) dehydrogenase (HSD17B) family” (Regeneron Pharmaceuticals, Inc., priority 2017, dated 2022)
Structures can show the parent of a compound that is named as a salt.

Molecular target: T1, human HSD17B13 (Homo sapiens, UniProt Q7Z5P4)
T1 sequence (Q7Z5P4 20-300): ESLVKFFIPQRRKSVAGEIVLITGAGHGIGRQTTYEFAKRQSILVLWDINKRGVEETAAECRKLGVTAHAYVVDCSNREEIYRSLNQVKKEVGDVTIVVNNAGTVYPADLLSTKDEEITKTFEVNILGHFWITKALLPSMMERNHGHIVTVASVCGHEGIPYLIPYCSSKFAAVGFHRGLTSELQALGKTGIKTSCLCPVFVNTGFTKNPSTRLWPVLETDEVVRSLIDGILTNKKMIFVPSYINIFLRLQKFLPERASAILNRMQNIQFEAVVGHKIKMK
Assay: Substrate screening of steroid and bioactive lipid libraries against purified recombinant HSD17B13 (NADH-linked luciferase assay)
Format: biochemical
Conditions: for HSD17B13 Enzymatic Activity Relative Light Units: 500 μM NAD+, 100 ng enzyme, 3 hours at 23° C.; for HSD17B13 Enzymatic Activity Percent Estradiol Control: normalized to 50 μM estradiol after subtraction of 5% DMSO
Protocol: To understand the functional consequences of premature truncation of the HSD17B13 protein due to rs72613567:TA (the associated variant, rs72613567, is an insertion of an adenine adjacent to the donor splice site of exon six (TA allele)), the enzymatic activity of isoforms A and D was evaluated in vitro using recombinant protein and nicotinamide […] dinucleotide as cofactor. Reactions were performed in a final volume of 40 μl of assay buffer (0.2 M Tris-HCl, pH 7.5) which contained 500 μM NAD^+, 5 μM bioactive lipid or 50 μM steroid (all in a final concentration of 5% DMSO), and 100 ng of recombinant human HSD17B13. Reactions were incubated for 3 hours, at 23° C., after which an equal volume detection reagent was added. Following a 1 hour incubation at 23° C., the relative light units (RLUs) were measured on an Envision Plate Reader (Perkin Elmer). Raw RLU values were normalized as percent of control (50 μM estradiol) following subtraction of negative control (5% DMSO) using the following formula: Percent of control (POC)=100×(Sample (RLU)−Negative CTRLaverage)/(Positive CTRLaverage−Negative CTRLaverage).

[1] = Bioactive Lipid Library, 5 μM bioactive lipid (Estradiol Control 50 μM)
[2] = Bioactive Lipid Library, 5 μM bioactive lipid

Compound	HSD17B13 Enzymatic Activity Relative Light Units [1]	HSD17B13 Enzymatic Activity Percent Estradiol Control [2]	HSD17B13 Enzymatic Activity Relative Light Units (Steroid Library, 50 μM steroid)	HSD17B13 Enzymatic Activity Percent Estradiol Control (Steroid Library, 50 μM steroid)
CC/C=C\C/C=C\CC(O)/C=C/C=C\C/C=C\CCCC(=O)O (racemic) [(±)12-HEPE]	761600 RLU	35.30%	–	–
CCC(O)C(O)C/C=C\C/C=C\C/C=C\C/C=C\C/C=C\CCC(=O)O (racemic) [(±)19(20)-DiHDPA]	827600 RLU	37.95%	–	–
CCCCC/C=C\C=C\[C@@H](O)CCCCCCCCCC(=O)O [11(S)-HEDE]	1056440 RLU	57.23%	–	–
CC/C=C\C/C=C\C/C=C\C/C=C\C=C\C(O)C/C=C\CCC(=O)O (racemic) [(±)7-HDHA]	361320 RLU	5.54%	–	–
C[C@]12C[C@H]3S[C@H]3C[C@@H]1CC[C@@H]1[C@@H]2CC[C@@]2(C)[C@H]1CC[C@@]2(C)O [(2a,3a,52,17b)-Androstan-17ol,2,3-epithio-17-methyl]	–	–	100160 RLU	−1.06%
O=c1cc(-c2ccc(O)cc2)oc2cc(O)cc(O)c12 [Apigenin]	–	–	24440 RLU	−2.38%
CCCCCC(=O)/C=C/C=C\C/C=C\C/C=C\CCCC(=O)O [15-OxoETE]	616120 RLU	−8.98%	–	–
CCCCC/C=C\C[C@@H](O)/C=C/C=C\CCC(=O)O [tetranor-12(R)-HETE]	708640 RLU	31.37%	–	–
CC/C=C\C[C@H](O)/C=C/[C@H]1C(=O)C[C@H](O)[C@@H]1C/C=C\CCCC(=O)O [Prostaglandin D3]	298960 RLU	1.25%	–	–
CCCCC[C@H](O)/C=C/C=C\C=C\[C@@H](O)C/C=C\CCCC(=O)O [8(S),15(S)-DiHETE]	410440 RLU	9.19%	–	–
CCCCC/C=C\C/C=C\C/C=C\CC1OC1CCCC(=O)O (racemic) [(±)5(6)-EET]	360960 RLU	5.51%	–	–
CC/C=C\C/C=C\C/C=C\C=C\C(O)C/C=C\C/C=C\CCC(=O)O (racemic) [(±)10-HDHA]	801680 RLU	38.28%	–	–
CC/C=C\C[C@H](O)/C=C/[C@H]1[C@H](O)CC(=O)[C@@H]1C/C=C\CCCC(=O)O [Prostaglandin E3]	379960 RLU	7.66%	–	–
CC/C=C\C[C@H](O)/C=C/[C@@H]1[C@@H](CC(=O)CCCCC(=O)O)[C@@H](O)C[C@H]1O [Δ17-6-keto Prostaglandin F1α]	286120 RLU	0.24%	–	–
O=C(O)CCCC=C1CC2CC(O)C(C#CC(O)C3CCCCC3)C2C1 (centres unmarked) [13,14-dehydro-15-cyclohexyl Carbaprostacyclin]	356360 RLU	5.79%	–	–
O=P(O)(O)O[C@@H]1[C@@H](OP(=O)(O)O)[C@@H](OP(=O)(O)O)[C@@H](O)[C@H](O)[C@H]1OP(=O)(O)O [D-myo-Inositol-2,3,4,5-tetraphosphate (ammonium salt)]	372320 RLU	3.57%	–	–
CC(=O)S[C@@H]1CC2=CC(=O)CC[C@]2(C)[C@H]2CC[C@@]3(C)[C@@H](CC[C@@]34CCC(=O)O4)[C@H]12 [Spironolactone]	–	–	184280 RLU	0.41%
C[C@@H](O)CCC[C@H](O)/C=C/[C@H]1[C@H](O)CC(=O)[C@@H]1CCCCCCC(=O)O [19(R)-hydroxy Prostaglandin E1]	333160 RLU	3.96%	–	–
C[C@@H](O)CCC[C@H](O)/C=C/[C@H]1C=CC(=O)[C@@H]1C/C=C\CCCC(=O)O [19(R)-hydroxy Prostaglandin A2]	323320 RLU	3.18%	–	–
O=C(O)CCCCC(=O)CC[C@H]1[C@H](O)CC(=O)[C@@H]1CCC(=O)O [tetranor-PGEM]	348440 RLU	5.17%	–	–

Compound	HSD17B13 Enzymatic Activity Relative Light Units [1]	HSD17B13 Enzymatic Activity Percent Estradiol Control [2]	HSD17B13 Enzymatic Activity Relative Light Units (Steroid Library, 50 μM steroid)	HSD17B13 Enzymatic Activity Percent Estradiol Control (Steroid Library, 50 μM steroid)
CCCCC[C@@H](O)/C=C/C=C\C/C=C\C/C=C\CCCC(=O)O [15(R)-HETE]	701120 RLU	61.00%	–	–
O=C(O)CCC/C=C\C/C=C\C/C=C\C/C=C\CCCCCO [20-HETE]	332640 RLU	0.57%	–	–
C[C@]12CCC(=O)C[C@@H]1CC[C@@H]1[C@@H]2[C@@H](O)C[C@@]2(C)[C@H]1CC[C@]2(O)C(=O)CO [5alpha-dihydrocortisol]	–	–	139720 RLU	−0.36%
C[C@]12CCC(=O)C=C1CC[C@@H]1[C@@H]2[C@@H](O)C[C@@]2(C)[C@H]1CC[C@]2(O)C(=O)CO [Cortisol]	–	–	40080 RLU	−2.10%
CCCCC/C=C\C=C\[C@H](O)C/C=C\C/C=C\CCCC(=O)O [11(R)-HETE]	1064120 RLU	57.80%	–	–
CC[C@H]1O[C@H]1C/C=C\C/C=C\C/C=C\C/C=C\C/C=C\CCC(=O)O (racemic) [(±)19(20)-EpDPA]	300600 RLU	1.38%	–	–
O=P(O)(O)O[C@@H]1[C@H](OP(=O)(O)O)[C@H](OP(=O)(O)O)[C@@H](O)[C@H](O)[C@H]1OP(=O)(O)O [D-myo-Inositol-1,2,3,6-tetraphosphate (sodium salt)]	424280 RLU	7.49%	–	–
CCCCC[C@H](O)/C=C/[C@H]1CC2CC(C2)[C@@H]1C/C=C\CCCC(=O)O [Carbocyclic Thromboxane A2]	309000 RLU	2.05%	–	–
CCCCC(C)(O)C/C=C/[C@H]1[C@@H](O)CC(=O)[C@@H]1CCCCCCC(=O)OC (stereo partly drawn) [11β-Misoprostol]	331200 RLU	3.80%	–	–
Ptdlns-(3,4,5)-P3 (1,2-dipalmitoyl) (sodium salt)	334600 RLU	0.72%	–	–
CCCCC/C=C\C/C=C\C/C=C\C=C\[C@@H]1CCCC(=O)O1 [5(S)-HETE lactone]	288400 RLU	0.12%	–	–
O=P(O)(O)OC1[C@@H](OP(=O)(O)O)[C@H](OP(=O)(O)O)C(O)[C@H](OP(=O)(O)O)[C@H]1OP(=O)(O)O (stereo partly drawn) [D-myo-Inositol-1,2,4,5,6-pentaphosphate (sodium salt)]	398080 RLU	5.52%	–	–
CCCCCC(=O)/C=C/[C@H]1C(O)CC(=O)[C@H]1C/C=C\CCCC(=O)O (some centres unmarked) [8-iso-15-keto Prostaglandin E2]	262160 RLU	−1.65%	–	–
Epiandrosterone acetate	–	–	210960 RLU	0.88%
CC/C=C\C/C=C\C=C\[C@@H](O)CCCCCCCC(=O)O [9(S)-HOTrE]	586800 RLU	22.31%	–	–
CCCCC/C=C\C[C@@H](/C=C/C=C\C/C=C\CCCC(=O)O)OO [12(S)-HpETE]	199760 RLU	−6.47%	–	–
CCCCCCCC/C(=C\CCCCCCCC(=O)O)[N+](=O)[O-] [10-Nitrooleate]	28200 RLU	−22.42%	–	–
CCCCC[C@H](O)/C=C/[C@H]1C=CC(=O)[C@@H]1CCCCCCC(=O)NCCCCCNC(=O)CCCC[C@@H]1SC[C@@H]2NC(=O)N[C@@H]21 [Prostaglandin A1-biotin]	309320 RLU	2.07%	–	–
Cholesteryl Linoleate Hydroperoxides	256120 RLU	−2.28%	–	–
O=C(O)CCC/C=C\C[C@@H]1[C@@H](/C=C/[C@@H](O)COc2ccc(I)cc2)[C@H]2CC[C@@H]1O2 [I-BOP]	358960 RLU	6.00%	–	–
